Results reported in patent US10159254B2, “Weed control methods” (Syngenta Participations AG, priority 2013, dated 2018).

Assays:
SYHT0H2 soybeans [1] = experiment: Greenhouse: water-soluble iron compounds safening mesotrione, maximum injury; details: in vivo
Protocol: An experiment is conducted to look at the safening effect of a variety of water-soluble iron-containing compounds. SYHT0H2 soybean plants are grown in small pots filled with a greenhouse potting mix. […] In all cases, mesotrione was applied at 420 g ai/ha and all treatments contained liquid ammonium sulphate at 2.5% v/v and NIS at 0.25% v/v. The application rates of iron-containing compounds indicated are iron equivalent rates. […] Percent injury levels were assessed 6, 9, and 16 days after treatment. Data presented are maximum injury occurring from any of the treatments at any time during the experiment.

[2] = test system: Velvetleaf (Abutilon theophrasti); experiment: Greenhouse weed control: HPPD inhibitors with or without Sequestrene 138Fe, velvetleaf; type: in vivo; details: percent velvetleaf control 19 DAT
Protocol: Effect of Tank Mix Applications of HPPD Inhibitors and Sequestrene® 138Fe on Velvetleaf Control. Percent Control Assessed 19 DAT
(§1) A greenhouse experiment is conducted to determine the effect of chelated iron on weed control in the greenhouse. Velvetleaf (Abutilon theophrasti) and common waterhemp (Amaranthus rudis) plants are grown in 4×4-inch pots filled with a greenhouse potting mix. When the plants reached the 2 to 3 inch height (2 to 3 leaf stage), they are sprayed with a reduced rate of an HPPD inhibitor alone or in a tank mix combination with Sequestrene 138Fe at 140 g/ha (equivalent to 8.4 g iron/hectare) or 280 g/ha (equivalent to 16.8 g iron/hectare). […] Observations on percent control are recorded 12, 19, and 25 days after treatment.

[3] = test system: common waterhemp (Amaranthus rudis); experiment: Greenhouse weed control: HPPD inhibitors with or without Sequestrene 138Fe, common waterhemp; type: in vivo; details: common waterhemp control 17 DAT
Protocol: as §1
Effect of Tank Mix Applications of Various HPPD Inhibitors and Sequestrene 138Fe on Common Waterhemp Control. Injury Assessed 17 DAT
An experiment is performed to look at the effect of applying iron chelates on control of Common Waterhemp using HPPD-inhibiting herbicides. Experiment design is analogous to that outlined in Experiment 3 above.

[4] = test system: HPPD-tolerant soybean event SYHT04R; experiment: Glasshouse: post-emergence HPPD herbicide damage with or without Sequestrene 138Fe, 7 DAA; type: in vivo; details: isoxaflutole, tembotrione
Protocol: (§2) Safening of Various HPPD-inhibiting Herbicides in HPPD-tolerant Soybean Events SYHT04R and SYHT0H2
(§3) An experiment is performed to determine whether the addition of chelating iron to the spray formulation can mitigate foliar bleaching injury from the HPPD herbicides mesotrione, bicyclopyrone, tembotrione, isoxaflutole, topramezone and pyrasulfatole when applied post-emergence to the HPPD-tolerant soybean events SYHT04R and SYHT0H2.
(§4) Soybean plants are grown in a glasshouse (24° C. day, 18° C. night; 65% relative humidity; 16 hour photoperiod). Two replicates are utilised in respect of SYHT0H2 (growth stage V1-V3) and three replicates are utilised in respect of SYHT04R (growth stage V1 to V3). Spray applications are applied post-emergence at […]. Herbicide damage was assessed 7 DAA (Days After Application).

[5] = test system: HPPD-tolerant soybean event SYHT0H2; experiment: as above; type: in vivo; details: isoxaflutole, tembotrione
Protocol: as §2, §3, §4

SYHT0H2 soybeans [6] = experiment: Greenhouse: tank-mix and sequential Sequestrene 138Fe, HPPD-inhibitor maximum injury; type: in vivo, soybean
Protocol: Effect of Tank-mix and Sequential Application of Sequestrene® 138 on Mesotrione (Applied as Callisto®)—Maximum Injury in SYHT0H2 Soybeans
An experiment is conducted in the greenhouse to determine the effect of chelated iron (Sequestrene 138Fe containing 6% iron) on HPPD-inhibitor injury to SYHT0H2 soybeans. Soybeans are grown in pots filled with a greenhouse potting mix. When the plants reach the V2-V3 stage, they are sprayed with an HPPD-inhibitor herbicide applied alone (Treatment 1), or in tank mixture with Sequestrene 138Fe (Treatment 2), or sequentially with Sequestrene 138Fe applied 1 day before the HPPD inhibitor (Treatment 3). Sequestrene 138Fe is applied at 2240 g/ha (equivalent to 134 g iron/ha). All treatments are applied with liquid ammonium sulfate @ 2.5% v/v and a non-ionic surfactant (NIS) @ 0.25% v/v in 150 L/ha water. Observations on percent injury are recorded 5, 11, or 22 days after treatment. Data presented are maximum injury observed during the trial.

SYHT0H2 soybeans [7] = experiment: Greenhouse: Sequestrene 138Fe rate series, percent injury from HPPD-inhibitors at 7 DAT; type: in vivo, soybean; details: mesotrione 420, bicyclopyrone 200, tembotrione 368, topramezone 72 g/ha
Protocol: Effect of Sequestrene® 138Fe on Percent Injury from Various HPPD-inhibitors on SYHT0H2 Soybeans. Injury Assessed at Seven Days after Treatment (7 DAT)
SYHT0H2 soybeans are grown in 4×4-inch pots filled with a greenhouse potting mix. When the plants reach the V2-V3 growth stage, they are treated with an HPPD inhibitor applied alone or in a tank mixture with Sequestrene 138Fe at various rates ranging from 140 g product/ha (equivalent to 8.4 g iron/ha) to 2240 g product/ha (equivalent to 134 g iron/ha).

SYHT04R soybeans = experiment: Greenhouse: Sequestrene 138Fe safening of HPPD-inhibitors, injury 6 days after treatment; type: in vivo, soybean; details: 6 days after treatment (maximum injury), mesotrione 420, bicyclopyrone 200, isoxaflutole 280 g/ha
Protocol: Effect of Sequestrene® 138Fe on Various HPPD-inhibitors in SYHT04R Soybeans. Maximum Injury Assessed 6 Days after Treatment
A greenhouse experiment is conducted to determine if Sequestrene® 138Fe was effective in safening various other HPPD herbicide-tolerant soybean events, such as SYHT04R.
SYHT04R soybean plants are grown in 4×4-inch pots filled with a greenhouse potting mix. When the plants reached the V2-V3 growth stage, they are sprayed with an HPPD inhibitor alone or in combination with Sequestrene® 138Fe at 1120 g/ha (equivalent to 67.2 g iron/ha). […] Observations on percent injury are recorded at 6 and 20 days after treatment. Data presented is from the 6 days after treatment rating representing the maximum injury observed during the experiment.

SYHT04R soybean = experiment: Greenhouse: chelated Fe versus chelated Mn, bicyclopyrone maximum injury; type: in vivo; details: additive none, maximum injury of 5 and 9 days after treatment
Protocol: Effect of Chelated Fe and Chelated Mn on Safening SYHT04R Soybean from Bicyclopyrone Injury
A greenhouse experiment is conducted to determine if chelating agents containing nutrient elements other than Fe were also effective in safening HPPD herbicide-tolerant soybeans.
SYHT04R soybean plants are grown in 4×4-inch pots filled with a greenhouse potting mix. When the plants reached the V2-V3 growth stage, they are sprayed with an HPPD inhibitor alone or in combination with Sequestrene 138Fe or a solution containing 6% EDTA-chelated Mn. […] Observations on percent injury were recorded 5, and 9 days after treatment. Data presented are maximum injury observed during the experiment.

[8] = Sequestrene 138Fe 0 g/ha, g ai/ha: mesotrione 26, isoxaflutole 26, bicyclopyrone 50, tembotrione 46, pyrasulfatole 22, topramezone 18
[9] = Sequestrene 138Fe 140 g/ha tank mix, mesotrione 26, isoxaflutole 26 g ai/ha
[10] = Sequestrene 138Fe 280 g/ha tank mix, g ai/ha: bicyclopyrone 50, tembotrione 46, pyrasulfatole 22, topramezone 18
[11] = Sequestrene 138Fe 1000 g/ha, g ai/ha: mesotrione 200, bicyclopyrone, pyrasulfatole 100, topramazone 50
[12] = Sequestrene 138Fe 1000 g/ha, g ai/ha: mesotrione 800, bicyclopyrone, pyrasulfatole 400, topramazone 200
[13] = no Sequestrene 138Fe, g ai/ha: mesotrione 200, bicyclopyrone, pyrasulfatole 100, topramazone 50
[14] = no Sequestrene 138Fe, g ai/ha: mesotrione 800, bicyclopyrone, pyrasulfatole 400, topramazone 200
[15] = Sequestrene 138Fe 140 g/ha tank mix
[16] = Sequestrene 138Fe 280 g/ha tank mix
[17] = Sequestrene 138Fe 560 g/ha tank mix
[18] = Sequestrene 138Fe 1120 g/ha tank mix
[19] = Sequestrene 138Fe 2240 g/ha tank mix

Compound | % Injury [2, 8] | % Injury [3, 8] | % Injury [2, 10] | % Injury [3, 10] | Herbicide damage SYHT04R [4, 11] | Herbicide damage SYHT04R [4, 12] | Herbicide damage SYHT04R [4, 13] | Herbicide damage SYHT04R [4, 14] | Herbicide damage SYHT0H2 [5, 11] | Herbicide damage SYHT0H2 [5, 12] | Herbicide damage SYHT0H2 [5, 13] | Herbicide damage SYHT0H2 [5, 14] | other results
O=S(=O)([O-])[O-].[Fe+2] [Ferrous Sulfate (Fe2SO4), iron (II) sulphate (ferrous sulphate)] | – | – | – | – | – | – | – | – | – | – | – | – | safening SYHT0H2 soybeans from mesotrione injury (SYHT0H2 soybeans [1]): effective
CS(=O)(=O)c1cc(C(F)(F)F)ccc1C(=O)c1cnoc1C1CC1 [Isoxaflutole, isoxaflutole] | 78% | 87% | – | – | – | – | – | – | – | – | – | – | % Injury [2, 9]: 82%; % Injury [3, 9]: 88%
Cc1nn(C)c(O)c1C(=O)c1ccc(C(F)(F)F)cc1S(C)(=O)=O [Pyrasulfatole, pyrasulfotole] | 85% | 98% | 80% | 77% | 0 | 2 | 4 | 12 | 10 | 18 | 10 | 4 | –
CS(=O)(=O)c1ccc(C(=O)C2C(=O)CCCC2=O)c(Cl)c1COCC(F)(F)F [Tembotrione, tembotrione] | 98% | 99% | 99% | 99% | – | – | – | – | – | – | – | – | % Maximum Injury (SYHT0H2 soybeans [6]; in vivo): 31%
Cc1c(C(=O)c2cnn(C)c2O)ccc(S(C)(=O)=O)c1C1=NOCC1 [Topramezone, topramezone] | 96% | 100% | 93% | 99% | 2 | 3 | 5 | 17 | 5 | 0 | 8 | 23 | % Injury (SYHT0H2 soybeans [7]; Sequestrene 138Fe 0 g/ha): 8%; % Injury (SYHT0H2 soybeans [7]; [15]): 0%; % Injury (SYHT0H2 soybeans [7]; [16]): 0%; % Injury (SYHT0H2 soybeans [7]; [17]): 0%; % Injury (SYHT0H2 soybeans [7]; [18]): 0%; % Injury (SYHT0H2 soybeans [7]; [19]): 0%
bicyclopyrone | 100% | 90% | 100% | 96% | 5 | 30 | 15 | 42 | 3 | 25 | 13 | 40 | % Maximum Injury (SYHT0H2 soybeans [6]; Sequestrene 138Fe 2240 g/ha applied 1 day before herbicide (Treatment 3, sequential), mesotrione 420, bicyclopyrone 200, tembotrione 368 g ai/ha): 12%; % Maximum Injury (SYHT0H2 soybeans [6]; herbicide alone (Treatment 1), mesotrione 420, bicyclopyrone 200, tembotrione 368 g ai/ha, maximum of 5, 11, 22 days after treatment): 25%; % Maximum Injury (SYHT0H2 soybeans [6]; tank mix with Sequestrene 138Fe 2240 g/ha (Treatment 2, simultaneous), mesotrione 420, bicyclopyrone 200, tembotrione 368 g ai/ha): 3%; % Injury (SYHT0H2 soybeans [7]; Sequestrene 138Fe 0 g/ha): 23%; % Injury (SYHT0H2 soybeans [7]; [15]): 12%; % Injury (SYHT0H2 soybeans [7]; [16]): 10%; % Injury (SYHT0H2 soybeans [7]; [17]): 1%; % Injury (SYHT0H2 soybeans [7]; [18]): 0%; % Injury (SYHT0H2 soybeans [7]; [19]): 0%; % Injury (SYHT04R soybeans; Sequestrene 138Fe 0 g/ha): 29%; % Injury (SYHT04R soybeans; Sequestrene 138Fe 1120 g/ha): 7%; % Injury (SYHT04R soybean): 29%
iron DTPA [Sequestrene 330-Fe] | – | – | – | – | – | – | – | – | – | – | – | – | safening SYHT0H2 soybeans from mesotrione injury (SYHT0H2 soybeans [1]): effective
